Experiments:
[1] = human gut metagenome, 24 h, 2 µM
[2] = (§1) The drug is tested on WLS-027 corresponding to human gut metagenome with ENA study accession number: PRJEB37062 and ENA sample accession number: ERS12561744 for biotransformation under anaerobic condition. The drug concentrations were measured over 9 timepoints collected between 0 and 24 hours of incubation by liquid-chromatography-coupled mass spectrometry (LC–MS); conditions: 2 µM
[3] = as §1, with “Z-028” for “WLS-027”, “mouse” for “human”, “ERS12561827” for “ERS12561744”; conditions: 2 µM
[4] = human gut metagenome, 24 h, 2 µM; remark: listed apart in the source
[5] = as §1, with “Z-003” for “WLS-027”, “pig” for “human”, “ERS12561803” for “ERS12561744”; conditions: 2 µM
[6] = as §1, with “Z-004” for “WLS-027”, “to” for “to human gut”, “ERS12561804” for “ERS12561744”; conditions: 2 µM
[7] = as §1, with “WLS-220” for “WLS-027”, “ERS12561769” for “ERS12561744”; conditions: 2 µM
[8] = as §1, with “Z-018” for “WLS-027”, “pig” for “human”, “ERS12561817” for “ERS12561744”; conditions: 2 µM
[9] = human gut metagenome, 24 h, 2 µM; remark: listed apart in the source
[10] = human gut metagenome, 24 h, 2 µM; remark: listed apart in the source
[11] = human gut metagenome, 24 h, 2 µM; remark: listed apart in the source
[12] = as §1, with “WLS-069” for “WLS-027”, “ERS12561748” for “ERS12561744”; conditions: 2 µM
[13] = as §1, with “WLS-170” for “WLS-027”, “ERS12561762” for “ERS12561744”; conditions: 2 µM
[14] = as §1, with “Z-022” for “WLS-027”, “mouse” for “human”, “ERS12561821” for “ERS12561744”; conditions: 2 µM
[15] = as §1, with “Z-007” for “WLS-027”, “rat” for “human”, “ERS12561807” for “ERS12561744”; conditions: 2 µM
[16] = human gut metagenome, 24 h, 2 µM; remark: listed apart in the source
[17] = human gut metagenome, 24 h, 2 µM; remark: listed apart in the source
[18] = as §1, with “WLS-086” for “WLS-027”, “ERS12561752” for “ERS12561744”; conditions: 2 µM
[19] = human gut metagenome, 24 h, 2 µM; remark: listed apart in the source
[20] = as §1, with “Z-011” for “WLS-027”, “mouse” for “human”, “ERS12561811” for “ERS12561744”; conditions: 2 µM
Further: call rule not given here.

| SMILES | Bacterial Biotransformation [1] | Bacterial Biotransformation [2] | Bacterial Biotransformation [3] | Bacterial Biotransformation [4] | Bacterial Biotransformation [5] | Bacterial Biotransformation [6] | Bacterial Biotransformation [7] | Bacterial Biotransformation [8] | Bacterial Biotransformation [9] | Bacterial Biotransformation [10] | Bacterial Biotransformation [11] | Bacterial Biotransformation [12] | Bacterial Biotransformation [13] | Bacterial Biotransformation [14] | Bacterial Biotransformation [15] | Bacterial Biotransformation [16] | Bacterial Biotransformation [17] | Bacterial Biotransformation [18] | Bacterial Biotransformation [19] | Bacterial Biotransformation [20] |
| --- | --- | --- | --- | --- | --- | --- | --- | --- | --- | --- | --- | --- | --- | --- | --- | --- | --- | --- | --- | --- |
| Cc1ccccc1N1C(=O)c2cc(S(N)(=O)=O)c(Cl)cc2NC1C (stereo not given) [METOLAZONE] | Compound NOT metabolized | Compound NOT metabolized | Compound NOT metabolized | Compound NOT metabolized | Compound NOT metabolized | Compound NOT metabolized | Compound metabolized | Compound NOT metabolized | Compound NOT metabolized | Compound NOT metabolized | Compound NOT metabolized | Compound NOT metabolized | Compound NOT metabolized | Compound NOT metabolized | Compound NOT metabolized | Compound metabolized | Compound NOT metabolized | Compound metabolized | Compound metabolized | Compound NOT metabolized |
| COCCc1ccc(OCC(O)CNC(C)C)cc1.COCCc1ccc(OCC(O)CNC(C)C)cc1.O=C(O)C(O)C(O)C(=O)O (stereo not given) [METOPROLOL TARTRATE] | Compound NOT metabolized | Compound NOT metabolized | Compound NOT metabolized | Compound NOT metabolized | Compound metabolized | Compound NOT metabolized | Compound NOT metabolized | Compound NOT metabolized | Compound NOT metabolized | Compound NOT metabolized | Compound NOT metabolized | Compound NOT metabolized | Compound metabolized | Compound NOT metabolized | Compound NOT metabolized | Compound NOT metabolized | Compound metabolized | Compound metabolized | Compound metabolized | Compound NOT metabolized |
| COc1c(C)c2c(c(O)c1C/C=C(\C)CCC(=O)OCCN1CCOCC1)C(=O)OC2 [MYCOPHENOLATE MOFETIL] | Compound metabolized | Compound metabolized | Compound metabolized | Compound metabolized | Compound metabolized | Compound metabolized | Compound metabolized | Compound metabolized | Compound metabolized | Compound metabolized | Compound metabolized | Compound metabolized | Compound metabolized | Compound metabolized | Compound metabolized | Compound metabolized | Compound metabolized | Compound metabolized | Compound metabolized | Compound metabolized |
| CCN(CC)CCOC(=O)C(Cc1cccc2ccccc12)CC1CCCO1.O=C(O)C(=O)O (stereo not given) [NAFRONYL OXALATE] | Compound metabolized | Compound metabolized | Compound metabolized | Compound metabolized | Compound metabolized | Compound metabolized | Compound metabolized | Compound metabolized | Compound NOT metabolized | Compound NOT metabolized | Compound metabolized | Compound metabolized | Compound metabolized | Compound metabolized | Compound NOT metabolized | Compound metabolized | Compound metabolized | Compound metabolized | Compound NOT metabolized | Compound NOT metabolized |
| C=CCN1CC[C@]23c4c5ccc(O)c4O[C@H]2C(=O)CC[C@@]3(O)[C@H]1C5 [NALOXONE] | Compound NOT metabolized | Compound NOT metabolized | Compound NOT metabolized | Compound NOT metabolized | Compound metabolized | Compound NOT metabolized | Compound NOT metabolized | Compound NOT metabolized | Compound NOT metabolized | Compound NOT metabolized | Compound NOT metabolized | Compound NOT metabolized | Compound NOT metabolized | Compound NOT metabolized | Compound NOT metabolized | Compound NOT metabolized | Compound NOT metabolized | Compound NOT metabolized | Compound NOT metabolized | Compound NOT metabolized |
| CCc1nn(CCCN2CCN(c3cccc(Cl)c3)CC2)c(=O)n1CCOc1ccccc1 [NEFAZODONE] | Compound NOT metabolized | Compound metabolized | Compound NOT metabolized | Compound NOT metabolized | Compound NOT metabolized | Compound NOT metabolized | Compound metabolized | Compound NOT metabolized | Compound metabolized | Compound NOT metabolized | Compound metabolized | Compound metabolized | Compound metabolized | Compound NOT metabolized | Compound NOT metabolized | Compound metabolized | Compound metabolized | Compound metabolized | Compound NOT metabolized | Compound NOT metabolized |
| CN1CCOC(c2ccccc2)c2ccccc2C1 (stereo not given) [NEFOPAM] | Compound NOT metabolized | Compound metabolized | Compound NOT metabolized | Compound metabolized | Compound NOT metabolized | Compound NOT metabolized | Compound metabolized | Compound NOT metabolized | Compound NOT metabolized | Compound NOT metabolized | Compound metabolized | Compound NOT metabolized | Compound NOT metabolized | Compound NOT metabolized | Compound NOT metabolized | Compound metabolized | Compound metabolized | Compound metabolized | Compound NOT metabolized | Compound NOT metabolized |
| Cc1ccnc2c1NC(=O)c1cccnc1N2C1CC1 [NEVIRAPINE] | Compound NOT metabolized | Compound NOT metabolized | Compound NOT metabolized | Compound NOT metabolized | Compound NOT metabolized | Compound NOT metabolized | Compound metabolized | Compound NOT metabolized | Compound metabolized | Compound NOT metabolized | Compound NOT metabolized | Compound NOT metabolized | Compound metabolized | Compound NOT metabolized | Compound NOT metabolized | Compound metabolized | Compound metabolized | Compound metabolized | Compound NOT metabolized | Compound NOT metabolized |
